Entries after “also recorded” stand apart in the source; their conditions may differ. Like-named read-outs stand apart in the source and are kept apart here.
Columns and labels:
HeLa = experiment: Combination with bortezomib, cell death; assay type: cell-based, human; details: 48 h post-treatment; BTZ 6 nM, compound 13 0.75 µM, alone or combined
lysosomal volume = tested on: lysosomal volume; parameters: method as in PMID 16137197; details: cited from earlier work
MDA-MB231 = experiment: SRB antiproliferative/antigrowth assay; assay type: cell-based, human; details: for GI50: Homo sapiens, read-out: GI50 MB231
Protocol: (§1) The antigrowth effects of 4-piperazinylquinoline sulfonyl analogs on human breast tumor cells was initially evaluated using MDA-MB468 (a PTEN defective, EGFR positive breast adenocarcioma), MDA-MB231 (p53 and pRB mutated, triple-negative breast carcinoma), and MCF7 (p53+/−, invasive ductal breast carcinoma) cell lines. In addition, the cytotoxicity of all the compounds was also evaluated with the 184B5 and MCF10A non-cancer immortalized breast epithelial cell lines, to determine if these newly synthesized compounds have differential cytotoxic effects on cancer and non-cancer cells. The panel of three breast cancer cell lines with different genetic back ground and the well-studied two non-cancer immortalized breast cell lines would provide insights into the efficacy and toxicity of the test compounds in the different genetic background and at different stages of tumor development. The dose response of each cell line was established by determining the number of viable cells after 48 h of continuous drug treatment against seven different concentrations (100 µM to 0.0064 µM) of each compound. The reading of sulphorodamine B (SRB) staining is known to accurately reflect the level of total cellular macromolecules/cell growth/proliferation[6],[23]. […] The data for CQ and cisplatin were included as references. […] The differences in the GI50 values may be attributable to such factors as the nature of the sulfonyl group and the halogen substitution on the 7th position of the 4-piperazinylquinoline ring system, and the genetic and biochemical background of the cell lines.
(§2) Antiproliferative/antigrowth effects were determined by a SRB-based protocol[6],[23]. For a typical screening experiment, 5,000–10,000 cells were inoculated into 100 µL medium per well of a 96-well microtiter plate as described previously. Briefly, after the inoculation, the microtiter plate was incubated at 37 °C, 5% CO2, 95% air and 100% relative humidity for 24 h, prior to addition of experimental drugs. Some of the sample wells were fixed with 25 µL of 50% tricholoroacetic acid (TCA) as a control of the cell population for each cell line at the time of drug addition (Tz). An aliquot of the frozen stock was thawed and diluted to a desired final maximum test-concentration with complete medium. Two to ten-fold serial dilutions were made to provide a total of seven drug concentrations (and a control [C]). Following addition of drugs, the culture plate was incubated for additional 48 h. Cells were fixed in situ by slowly adding 25 µL of ice-cold 50% (w/v) TCA (final concentration, 10% TCA), and were then incubated for 60 min at 4 °C. The supernatant was discarded, and the plate was washed five times with tap water, followed by air-dry. 50 µL of SRB solution at 0.4% (w/v) in 1% acetic acid was added to each well, and the plate was incubated for >30 min at room temperature. Unbound SRB was removed by five washes with tap water, followed by air-drying. The cells “stained” with SRB were solubilized with 10 mM trizma base, and the absorbance was read on an automated plate reader at a wavelength of 515–564 nm. The relative growth rate (%) was calculated for each of the compound concentrations according to the following formula: (Ti−Tz)/(C−Tz)×100
(§3) In the formula, time zero (Tz), control growth (C), and OD for different concentration of tested compounds (Ti). The GI50 for each compound was obtained from a non-linear Sigmoidal dose-response (variable slope) curve which is fitted by GraphPad Prism v.4.03 software. Values were calculated for each of these parameters if the level of activity was reached. However, if the effect was not reached or was exceeded, the value for that parameter was expressed as greater or less than the maximum or minimum concentration tested.

MDA-MB468 = experiment: SRB antiproliferative/antigrowth assay; assay type: cell-based, human; details: Homo sapiens, read-out: GI50 MB468
Protocol: as §1, §2, §3

MCF7 = experiment: SRB antiproliferative/antigrowth assay; assay type: cell-based, human
Protocol: as §1, §2, §3

MCF10A = experiment: SRB antiproliferative/antigrowth assay, non-cancer cells; assay type: cell-based, human; details: Homo sapiens, MCF-10A, read-out: GI50 MCF10A
Protocol: as §1, §2, §3

184B5 = experiment: as above; assay type: cell-based, human; details: Homo sapiens, 184B5, 48 h, read-out: GI50 184B5
Protocol: as §1, §2, §3

[1] = tested on: MDA-MB231, MDA-MB468, MCF7 breast cancer cells; 184B5 and MCF10A non-cancer breast cells; experiment: SRB assay, panel of breast cancer and non-cancer breast cell lines; assay type: cell-based, human; details: judged from GI50 values of Table 1
Protocol: as §1, §2, §3

HeLa cells = experiment: Sequential treatment with monastrol and compound 13, DNA content; assay type: cell-based, human; details: 100 μM monastrol, 18 h
Protocol: 0 h 2 h post-monastrol 4 h post-monastrol 6 h post-monastrol […]
death. HeLa cells, treated with 100 μM of monastrol for 18 h (defined 0 h), were released into complete medium in the absence (sham) or presence of 10 μM compound 13 (VR23). Note that monastrol arrested cells […]

[2] = MDA-MB-231, SRB, 48 h post-treatment, mean of triplicates of at least two experiments
[3] = MDA-MB-468, SRB, 48 h post-treatment, mean of triplicates of at least two experiments
[4] = Homo sapiens, MCF7, SRB, 48 h post-treatment, mean of triplicates of at least two experiments, read-out: GI50 MCF7
[5] = SRB, 48 h post-treatment, non-cancer breast epithelial cells
[6] = MDA-MB-231, 48 h, SRB, 48 h post-treatment, mean of triplicates of at least two experiments
[7] = MDA-MB-468, 48 h, SRB, 48 h post-treatment, mean of triplicates of at least two experiments
[8] = Homo sapiens, MCF7, 48 h, SRB, 48 h post-treatment, mean of triplicates of at least two experiments, read-out: GI50 MCF7
[9] = 48 h, SRB, 48 h post-treatment, non-cancer breast epithelial cells

Row | melting point [°C] | GI50 (MDA-MB231; [6]) [µM] | GI50 (MDA-MB468; [7]) [µM] | GI50 (MCF7; [8]) [µM] | Compound | GI50 (184B5) [µM] | preferential antigrowth effect on cancer versus non-cancer cells (in words) [1] | GI50 (MCF10A; [9]) [µM] | GI50 (184B5; [5]) [µM] | other results
1 |  |  |  |  | CC(C)C[C@H](NC(=O)[C@H](Cc1ccccc1)NC(=O)c1cnccn1)B(O)O [Bortezomib, bortezomib, reference compound] |  |  |  |  | cell death (HeLa): neither 6 nM BTZ nor 0.75 µM of compound 13 resulted in substantial HeLa cell death
2 |  |  |  |  | CCN(CC)CCCC(C)Nc1ccnc2cc(Cl)ccc12 (centres unmarked) [Chloroquine, reference compound] | 76.1 ± 1.1 |  |  |  | lysosomal volume (lysosomal volume): causes an increase in lysosomal volume; GI50 (MDA-MB231; MDA-MB-231, 48 h): 22.5 ± 1.4 µM; GI50 (MDA-MB468; MDA-MB-468, 48 h): 28.6 ± 1.3 µM; GI50 (MCF7; Homo sapiens, MCF7, 48 h, read-out: GI50 MCF7, SRB, 48 h post-treatment, mean of triplicates of at least two experiments): 38.4 µM; GI50 (MCF7; read-out: GI50 MCF7, SRB, 48 h post-treatment, mean of triplicates of at least two experiments): 38.4 ± 1.2 µM; GI50 (MCF10A; 48 h): 81.3 ± 1.3 µM
3 | 190 to 192 | 12.7 ± 1 | 4.6 ± 0.4 | 2.45 | CN(C)c1cccc2c(S(=O)(=O)NCCCNc3ccnc4cc(Cl)ccc34)cccc12 [Compound 32, 5-Dimethylamino-naphthalene-1-sulfonic acid [3-(7-chloro-quinolin-4-ylamino)-propyl]-amide] |  | loss of preferential antigrowth effects on cancer cells | 2.6 ± 0.1 | 1.7 ± 0.1 | GI50 (MCF7; SRB, 48 h post-treatment, mean of triplicates of at least two experiments, read-out: GI50 MCF7): 2.5 ± 0.1 µM; increase in potency against MCF7 compared to CQ (MCF7; ratio of GI50 values): 15.7 fold
4 | 77 to 79 | 6.4 ± 0.5 | 6.2 ± 0.4 | 6.9 ± 0.5 | Cc1ccc(S(=O)(=O)NCCCNc2ccnc3cc(C(F)(F)F)ccc23)cc1 [Compound 35, 4-Methyl-N-[3-(7-trifluoromethyl-quinolin-4-ylamino)-propyl]-benzenesulfonamide] |  | effective and preferential antigrowth effects on cancer cells; also recorded: stronger antigrowth/antiproliferation activity against cancer cells than non-cancer cells | 10.9 ± 0.9 | 12.2 ± 0.9 | 
5 | 137 to 139 | 7.5 ± 0.6 | 4.6 ± 0.2 | 4.3 ± 0.2 | COC(=O)c1sccc1S(=O)(=O)NCCCNc1ccnc2cc(C(F)(F)F)ccc12 [Compound 42, 3-[3-(7-Trifluoromethyl-quinolin-4-ylamino)-propylsulfamoyl]-thiophene-2-carboxylic acid methyl ester] |  | effective and preferential antigrowth effects on cancer cells; also recorded: stronger antigrowth/antiproliferation activity against cancer cells than non-cancer cells | 14.4 ± 0.8 | 12.1 ± 0.5 | 
6 |  |  |  |  | CCOC(=O)C1=C(C)NC(=S)NC1c1cccc(O)c1 (centres unmarked) [monastrol] |  |  |  |  | cell cycle arrest (HeLa cells): arrested cells at G2/M

Row | Compound | melting point [°C] | GI50 (MDA-MB231; [6]) [µM] | GI50 (MDA-MB468; [7]) [µM] | GI50 (MCF7; [8]) [µM] | GI50 (184B5) [µM] | preferential antigrowth effect on cancer versus non-cancer cells (in words) [1] | GI50 (MCF10A; [9]) [µM] | GI50 (184B5; [5]) [µM] | other results
7 | O=[N+]([O-])c1ccc(S(=O)(=O)N2CCN(c3ccnc4cc(C(F)(F)F)ccc34)CC2)c([N+](=O)[O-])c1 [Compound 22, 4-[4-(2,4-Dinitro-benzenesulfonyl)-piperazin-1-yl]-7-trifluoromethyl-quinoline] | 178 to 180 |  |  |  | 37.8 ± 0.4 | effective and preferential antigrowth effects on cancer cells; also recorded: stronger antigrowth/antiproliferation activity against cancer cells than non-cancer cells |  |  | GI50 (MDA-MB231; [2]): 24.3 ± 0.6 µM; GI50 (MDA-MB468; [3]): 19.2 ± 0.6 µM; GI50 (MCF7; [4]): 10.8 ± 0.1 µM; GI50 (MCF10A; [5]): 35.4 ± 0.5 µM
8 | O=[N+]([O-])c1ccc(S(=O)(=O)NCCCNc2ccnc3cc(C(F)(F)F)ccc23)c([N+](=O)[O-])c1 [Compound 40, 2,4-Dinitro-N-[3-(7-trifluoromethyl-quinolin-4-ylamino)-propyl]-benzenesulfonamide] | 198 to 200 |  |  |  | 15.9 ± 0.9 | effective and preferential antigrowth effects on cancer cells; also recorded: stronger antigrowth/antiproliferation activity against cancer cells than non-cancer cells |  |  | increase in antigrowth activity against MDA-MB231 compared to mono nitro substituted compounds (30 and 39) (MDA-MB231): 1.7–2.3 fold; GI50 (MDA-MB231; [2]): 8.9 ± 0.8 µM; GI50 (MDA-MB468; [3]): 8.5 ± 0.4 µM; GI50 (MCF7; [4]): 5.6 ± 0.3 µM; GI50 (MCF10A; [5]): 22.3 ± 0.8 µM

— publication PMC6474902, “Examination of novel 4-aminoquinoline derivatives designed and synthesized by a hybrid pharmacophore approach to enhance their anticancer activities” (Scientific Reports, 2019)
